Laboratory results published in the supplement of paper PMC11208160.

test: recombinant barcode read abundance after kanamycin selection (control-corrected) (log10(CPM+1)); higher = more efficient recombination; sequences stand for … in AGTGCAGAGAAAATCGGCCAGTTTTCTCTGCCTGCAGTCCGCATGCCGT…AGATTTATGCAGCGGACTGCCTTTCTCCCAAAGTGATAAACCGGACAGTATCATGGACCGGTTTTCCCGGTAATCCGTATTTGCAAGGTTGGTTTCACT; site = the 11-nt target
Outline: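 Values are log10(CPM+1) from a pooled E. coli screen of targets paired with IS621 bridge RNA target-binding loops. Recombination efficiency here means counts per million of recombinant-junction barcodes, averaged and control-corrected. Plates were chloramphenicol/ampicillin LB agar for the control and chloramphenicol/ampicillin/kanamycin with 0.1 mM IPTG, two replicates each.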
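Note: IS621 recombinase and bridge RNA in Escherichia coli cells.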

Sequence | recombinant barcode read abundance (log10)
CTAGCGACTTGGGTTCTAACCTGTTGCGG (site CTAGCGACTCC) | 1.85
CTAGCGTCTTGGGTTCTAACCTGTTGCTT (site CTAGAGTCTAA) | 0.115
CTAGCGTCTTGGGTTCTAACCTGTTGCTT (site CTAGCGTCTAA) | 0.776
CTAGCTCCTTGGGTTCTAACCTGTTGCAG (site CTAGCGGCTCT) | 0.0535
CTAGCTCCTTGGGTTCTAACCTGTTGCAG (site CTAGCTCCTCT) | 1.54
CTAGGACCTTGGGTTCTAACCTGTTGCCA (site CTAGGACCTTG) | 1.27
CTAGGACCTTGGGTTCTAACCTGTTGCCA (site CTAGGAGCTAG) | 0.233
CTAGGAGCTTGGGTTCTAACCTGTTGCTT (site CTAGGAGCTAA) | 0.924
CTAGGAGCTTGGGTTCTAACCTGTTGCTT (site CTAGGAGCTCA) | 0.211
CTAGGAGCTTGGGTTCTAACCTGTTGCTT (site CTAGGAGCTGA) | 0.0912
CTAGGAGCTTGGGTTCTAACCTGTTGCTT (site CTAGGAGCTTA) | 0.0974
CTAGGATCTTGGGTTCTAACCTGTTGCAT (site CTAGGATCTAT) | 2.45
CTAGGATCTTGGGTTCTAACCTGTTGCAT (site CTAGGATCTTG) | 0.301
CTAGGCTCTTGGGTTCTAACCTGTTGCGG (site CTACGCTCTTC) | 0.095
CTAGGCTCTTGGGTTCTAACCTGTTGCGG (site CTAGGCTCTCC) | 2.32
CTAGGTACTTGGGTTCTAACCTGTTGCTT (site ATAGGTACTAA) | 0.0337
CTAGGTACTTGGGTTCTAACCTGTTGCTT (site CTAGGTACTAA) | 0.0303
CTAGTAACTTGGGTTCTAACCTGTTGCCA (site ACGCGTGCTCC) | 0.0245
CTAGTAACTTGGGTTCTAACCTGTTGCCA (site CTAGTAACTTG) | 0.351
CTAGTTACTTGGGTTCTAACCTGTTGCCT (site CTAATTACTAG) | 0.0479
CTAGTTACTTGGGTTCTAACCTGTTGCCT (site CTACTTACTAG) | 0.363
CTAGTTACTTGGGTTCTAACCTGTTGCCT (site CTAGTTACTAG) | 1.11
CTAGTTACTTGGGTTCTAACCTGTTGCCT (site CTATTTACTAG) | 0.177
CTATCCTCTTGGGTTCTAACCTGTTGCAT (site CTAACCTCTAT) | 0.233
CTATCCTCTTGGGTTCTAACCTGTTGCAT (site CTACCCTCTAT) | 1.01
CTATCCTCTTGGGTTCTAACCTGTTGCAT (site CTAGCCTCTAT) | 0.537

Sequence | recombinant barcode read abundance (log10)
CTATCCTCTTGGGTTCTAACCTGTTGCAT (site CTATCCTCTAT) | 1.06
CTATGACCTTGGGTTCTAACCTGTTGCTG (site CTATGACCTCA) | 1.91
CTATGACCTTGGGTTCTAACCTGTTGCTG (site TCGGAGTCTGC) | 0.0682
CTATGCCCTTGGGTTCTAACCTGTTGCGA (site CTATGCCCTTA) | 0.129
CTATGCCCTTGGGTTCTAACCTGTTGCGA (site CTATGCCCTTC) | 2.02
CTATGGACTTGGGTTCTAACCTGTTGCAG (site CTATGGACTAT) | 0.391
CTATGGACTTGGGTTCTAACCTGTTGCAG (site CTATGGACTCT) | 2.39
CTATGGACTTGGGTTCTAACCTGTTGCAG (site CTATGGACTGT) | 0.348
CTATGGACTTGGGTTCTAACCTGTTGCAG (site CTATGGACTTT) | 0.0535
CTATGTGCTTGGGTTCTAACCTGTTGCCT (site CTATGTGCTAA) | 0.158
CTATGTGCTTGGGTTCTAACCTGTTGCCT (site CTATGTGCTAC) | 0.298
CTATGTGCTTGGGTTCTAACCTGTTGCCT (site CTATGTGCTAG) | 1.62
CTATGTGCTTGGGTTCTAACCTGTTGCCT (site CTATGTGCTAT) | 0.305
CTATGTGCTTGGGTTCTAACCTGTTGCGA (site CTATGTGCTTC) | 1.87
CTATGTGCTTGGGTTCTAACCTGTTGCGA (site GTATGTGCTTT) | 0.139
CTATGTGCTTGGGTTCTAACCTGTTGCGT (site CTATGTGCTAA) | 0.0372
CTATGTGCTTGGGTTCTAACCTGTTGCGT (site CTATGTGCTAC) | 1.54
CTATGTGCTTGGGTTCTAACCTGTTGCGT (site CTATGTGCTAG) | 0.0548
CTATGTGCTTGGGTTCTAACCTGTTGCGT (site CTATGTGCTAT) | 0.298
CTATTCCCTTGGGTTCTAACCTGTTGCCT (site CTATTCACTAG) | 0.1
CTATTCCCTTGGGTTCTAACCTGTTGCCT (site CTATTCCCTAG) | 1.52
CTATTCCCTTGGGTTCTAACCTGTTGCCT (site CTATTCGCTAG) | 0.286
CTATTCCCTTGGGTTCTAACCTGTTGCCT (site CTATTCTCTAG) | 0.483
CTATTGTCTTGGGTTCTAACCTGTTGCGG (site CTATTGTCTAC) | 0.714
CTATTGTCTTGGGTTCTAACCTGTTGCGG (site CTATTGTCTCC) | 1.35
CTATTGTCTTGGGTTCTAACCTGTTGCGG (site CTATTGTCTGC) | 0.249

Sequence | recombinant barcode read abundance (log10)
CTATTGTCTTGGGTTCTAACCTGTTGCGG (site CTATTGTCTTC) | 0.17
CTCAATACTTGGGTTCTAACCTGTTGCGA (site CTCAATACTTC) | 1.15
CTCAATACTTGGGTTCTAACCTGTTGCGA (site CTCAATTCTTT) | 0.0435
CTCAGACCTTGGGTTCTAACCTGTTGCTG (site CTCAGACCTCA) | 0.037
CTCAGACCTTGGGTTCTAACCTGTTGCTG (site TCACACACTAG) | 0.463
CTCATATCTTGGGTTCTAACCTGTTGCCA (site CTAATATCTTG) | 0.0804
CTCATATCTTGGGTTCTAACCTGTTGCCA (site CTCATATCTTG) | 0.162
CTCCAGACTTGGGTTCTAACCTGTTGCAG (site CTCCAGACTCT) | 1.87
CTCCAGACTTGGGTTCTAACCTGTTGCAG (site CTGCAGACTCG) | 0.0775
CTCCAGGCTTGGGTTCTAACCTGTTGCGG (site CTCAAGGCTAC) | 0.427
CTCCAGGCTTGGGTTCTAACCTGTTGCGG (site CTCCAGGCTCC) | 1.55
CTCCGAACTTGGGTTCTAACCTGTTGCTT (site CTCCGAACTAA) | 0.144
CTCCGAACTTGGGTTCTAACCTGTTGCTT (site CTCCGTACTAT) | 0.0428
CTCCGACCTTGGGTTCTAACCTGTTGCTT (site CTCCGACCTAA) | 1.67
CTCCGACCTTGGGTTCTAACCTGTTGCTT (site CTCCGCCCTAA) | 0.0228
CTCCGACCTTGGGTTCTAACCTGTTGCTT (site CTCCGGCCTAA) | 0.327
CTCCGACCTTGGGTTCTAACCTGTTGCTT (site CTCCGTCCTAA) | 0.103
CTCCGAGCTTGGGTTCTAACCTGTTGCTA (site CTCCGAGCTTA) | 0.0161
CTCCGAGCTTGGGTTCTAACCTGTTGCTA (site CTCCTAGCTAA) | 0.00807
CTCGACACTTGGGTTCTAACCTGTTGCTG (site CTCGACACTCA) | 1.6
CTCGACACTTGGGTTCTAACCTGTTGCTG (site CTCTACACTCA) | 0.191
CTCGCTACTTGGGTTCTAACCTGTTGCTT (site CTCGATACTAA) | 0.0927
CTCGCTACTTGGGTTCTAACCTGTTGCTT (site CTCGCTACTAA) | 0.264
CTCGCTCCTTGGGTTCTAACCTGTTGCCA (site CTCGCTCCTTG) | 0.275
CTCGCTCCTTGGGTTCTAACCTGTTGCCA (site GAAAAGTCTCA) | 0.113
